PubChem BioAssay (NCI)
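Grown in 96-well plates, cells were treated for 48 hours with each compound at five concentrations. Insufficient inhibition: endpoint recorded as highest concentration tested. GI50 marks 50% less growth. At the TGI there is no net growth.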

system: OVCAR-8 ovarian; test: NCI-60 cell line screen, 48 h

Compared with `CCOC(=O)C1=NN(c2ccc(C)cc2)C2=CC(C)=NN(C)C(=S)N21`, `CC(=O)C1=C(C)N(c2ccc(C)cc2)C2(O)C=CC(=O)C3C(=O)N(c4ccccc4)C(=O)C132` (centres undefined) is lower in TGI: greater than 100 µM for the first, 59.2 µM for the second.

`O=C(c1cccs1)N(C(=S)OC12CC3CC(CC(C3)C1)C2)c1ccccc1` and `CCC1CN(C(=O)c2ccccc2)C(Cc2c[nH]c3ccccc23)C(=O)C1CC(=O)OC` (centres undefined) cannot be ordered by TGI: greater than 100 µM for the first, greater than 100 µM for the second.

Compared with `C(=N\NC1=NCCN1)/c1ccc(-c2cn3cc(/C=N/NC4=NCCN4)ccc3n2)cc1`, `CCn1c(-c2ccc(N=NNc3ccc(-c4n[nH]c(=S)n4CC)cc3)cc2)n[nH]c1=S` is lower in TGI: greater than 55 µM for the first, 6.96 µM for the second.

Going from `CC1CC[C@@]2(OC1)OC1C[C@H]3[C@@H]4CC=C5CC(OC6OC(CO)C(OC7OC(CO)C(O)C(OC8OCC(O)C(O)C8O)C7OC7OC(CO)C(O)C(O)C7O)C(O)C6O)CCC5(C)[C@H]4CCC3(C)C1[C@@H]2C` (some centres undefined) to `CC12CC3OC(=O)C1COC14OC5(C2C1=O)C(O)(CCC1C4CC(O)C2(O)CC=CC(=O)C12C)C(=O)OC35C` (centres undefined), the TGI rises from 8.95 µM to greater than 100 µM.

First: Nc1ccccc1S(=O)(=O)c1ccccc1
Second: O=c1cccccc1[O-].O=c1cccccc1[O-].[O]=[U+2]=[O]
The TGI of the first is higher: greater than 100 µM for the first, 99.6 µM for the second.

Going from `Cc1c(N2C(=O)CS(=O)(=O)C2c2cccc(Oc3ccccc3)c2)c(=O)n(-c2ccccc2)n1C` (centres undefined) to `O=C(C[n+]1ccc2ccccc2c1)c1ccc2ccc3ccccc3c2c1`, the TGI falls from greater than 100 µM to 19.8 µM.

`COc1cc2c(ccc3c4cc(OC)c(OC)cc4c[n+](C)c23)cc1O` and `COc1ccc(C(=O)/C=C/c2cccc([N+](=O)[O-])c2)c(OC)c1` cannot be ordered by TGI: 62 µM for the first, greater than 50 µM for the second.

`CNC(=O)OCc1c(CO)nc(SC)n1C` and `CCOC(=O)C(NC(=O)c1ccco1)(Nc1nc2ccc(OCC)cc2s1)C(F)(F)F` (centres undefined) cannot be ordered by TGI: greater than 100 µM for the first, greater than 100 µM for the second.

`CN(C)CC(CC1=C(CC(CN(C)C)N(C)C)CCC1)N(C)C` (centres undefined) and `C[C@H](CCC(=O)O)[C@H]1CC[C@@]2(C)[C@@H]3C(=O)C[C@H]4C(C)(C)[C@@H](O)CC[C@]4(C)[C@H]3C(=O)C[C@]12C` cannot be ordered by TGI: greater than 100 µM for the first, greater than 100 µM for the second.

`NC(=O)c1c(NC(=O)c2ccccn2)sc2c1CCC(=O)C2` and `Cc1ccccc1C(=O)N/N=C/c1ccc(Sc2nccn2C)c([N+](=O)[O-])c1` cannot be ordered by TGI: greater than 100 µM for the first, greater than 100 µM for the second.

Compared with `CCC(C)C1=C(OC(C)=O)[N+]2([O-])Oc3ccc(-c4c(OC(C)=O)c(OC(C)=O)c(-c5ccc(OC(C)=O)cc5)c(OC(C)=O)c4OC(C)=O)cc3OC2(C(C)CC)C(=O)N1OC(C)=O` (centres undefined), `NCCCCc1cc(O)c2c(c1O)C(=O)c1ccccc1C2=O` is lower in TGI: greater than 50 µM for the first, 16.3 µM for the second.

Compared with `COc1cccc2c1Cc1cc(-c3ccccc3)[n+](C)n1-2`, `COc1ccc2c(c1)[nH]c1c(/C=C/c3ccccc3)nccc12` is lower in TGI: greater than 100 µM for the first, 42.2 µM for the second.

Going from `O=C(OCN1C(=O)C2C3C=CC(C2C1=O)C1C2C(=O)N(COC(=O)C4CCCN4)C(=O)C2C31)C1CCCN1` (centres undefined) to `Clc1cc2c(cc1Cl)CC(NCCN1CCCC1)CC2` (centres undefined), the TGI falls from 67.5 µM to 31.1 µM (2.2-fold).

First: [N-]=[N+]=CC(=O)c1ccccc1C#CCCc1ccccc1
Second: NCCSC(c1ccccc1)c1ccccc1
The TGI of the first is higher: greater than 100 µM for the first, 44 µM for the second.

Going from `CCN(CC(=O)O)C(=O)c1cccnc1` to `CCCCCCCCC/C=C/C=C/C(=O)NCC(=O)NC1C(O)C(O)C(Nc2ncnc3nc[nH]c23)OC1C(O)CO` (centres undefined), the TGI falls from greater than 100 µM to 0.077 µM.

Work on `COc1nc(C#CC2(O)CCCCC2)nc(OC)n1` yielded a TGI of 39.8 µM.

First: NC(=O)c1c(NC(=O)c2ccccn2)sc2c1CCC(=O)C2
Second: COc1ccc(C(=O)/C=C/c2cccc([N+](=O)[O-])c2)c(OC)c1
The GI50 of the first is 1.9-fold higher: 3.45 µM for the first, 1.78 µM for the second.

`CCCCCCCCC/C=C/C=C/C(=O)NCC(=O)NC1C(O)C(O)C(Nc2ncnc3nc[nH]c23)OC1C(O)CO` (centres undefined) was tested, and the GI50 was 0.00555 µM.

system: HS 578T breast; test: NCI-60 cell line screen, 48 h

`CCOC(=O)C1=NN(c2ccc(C)cc2)C2=CC(C)=NN(C)C(=S)N21` and `CC(=O)C1=C(C)N(c2ccc(C)cc2)C2(O)C=CC(=O)C3C(=O)N(c4ccccc4)C(=O)C132` (centres undefined) cannot be ordered by TGI: greater than 100 µM for the first, greater than 100 µM for the second.

`O=C(c1cccs1)N(C(=S)OC12CC3CC(CC(C3)C1)C2)c1ccccc1` and `CCC1CN(C(=O)c2ccccc2)C(Cc2c[nH]c3ccccc23)C(=O)C1CC(=O)OC` (centres undefined) cannot be ordered by TGI: greater than 100 µM for the first, greater than 100 µM for the second.

`C(=N\NC1=NCCN1)/c1ccc(-c2cn3cc(/C=N/NC4=NCCN4)ccc3n2)cc1` and `CCn1c(-c2ccc(N=NNc3ccc(-c4n[nH]c(=S)n4CC)cc3)cc2)n[nH]c1=S` cannot be ordered by TGI: greater than 100 µM for the first, greater than 100 µM for the second.

Compared with `CC1CC[C@@]2(OC1)OC1C[C@H]3[C@@H]4CC=C5CC(OC6OC(CO)C(OC7OC(CO)C(O)C(OC8OCC(O)C(O)C8O)C7OC7OC(CO)C(O)C(O)C7O)C(O)C6O)CCC5(C)[C@H]4CCC3(C)C1[C@@H]2C` (some centres undefined), `CC12CC3OC(=O)C1COC14OC5(C2C1=O)C(O)(CCC1C4CC(O)C2(O)CC=CC(=O)C12C)C(=O)OC35C` (centres undefined) is higher in TGI: 9.57 µM for the first, greater than 100 µM for the second.

Going from `Cc1c(N2C(=O)CS(=O)(=O)C2c2cccc(Oc3ccccc3)c2)c(=O)n(-c2ccccc2)n1C` (centres undefined) to `O=C(C[n+]1ccc2ccccc2c1)c1ccc2ccc3ccccc3c2c1`, the TGI falls from greater than 100 µM to 35.2 µM.

`NC(=O)c1c(NC(=O)c2ccccn2)sc2c1CCC(=O)C2` and `Cc1ccccc1C(=O)N/N=C/c1ccc(Sc2nccn2C)c([N+](=O)[O-])c1` cannot be ordered by TGI: greater than 100 µM for the first, greater than 100 µM for the second.

Going from `COc1ccc(C(=O)/C=C/c2cccc([N+](=O)[O-])c2)c(OC)c1` to `COc1ccc2c(c1)[nH]c1c(/C=C/c3ccccc3)nccc12`, the TGI falls from greater than 50 µM to 45.3 µM.

`CCOC(=O)C(NC(=O)c1ccco1)(Nc1nc2ccc(OCC)cc2s1)C(F)(F)F` (centres undefined) and `O=C(O)C1C2CCC(O2)C1C(=O)Nc1cccc2cccnc12` (centres undefined) cannot be ordered by TGI: greater than 100 µM for the first, greater than 100 µM for the second.

First: COc1cccc2c1Cc1cc(-c3ccccc3)[n+](C)n1-2
Second: NCCSC(c1ccccc1)c1ccccc1
The TGI of the first is higher: greater than 100 µM for the first, 76.5 µM for the second.

First: Clc1cc2c(cc1Cl)CC(NCCN1CCCC1)CC2 (centres undefined)
Second: C[C@H](CCC(=O)O)[C@H]1CC[C@@]2(C)[C@@H]3C(=O)C[C@H]4C(C)(C)[C@@H](O)CC[C@]4(C)[C@H]3C(=O)C[C@]12C
The TGI of the first is lower: 42.4 µM for the first, greater than 100 µM for the second.

Going from `CCN(CC(=O)O)C(=O)c1cccnc1` to `COc1nc(C#CC2(O)CCCCC2)nc(OC)n1`, the TGI falls from greater than 100 µM to 44.8 µM.

`NC(=O)c1c(NC(=O)c2ccccn2)sc2c1CCC(=O)C2` and `COc1ccc(C(=O)/C=C/c2cccc([N+](=O)[O-])c2)c(OC)c1` are within 1.5-fold of each other in GI50: 4.22 µM for the first, 3.85 µM for the second.

Compound `CCCCCCCCC/C=C/C=C/C(=O)NCC(=O)NC1C(O)C(O)C(Nc2ncnc3nc[nH]c23)OC1C(O)CO` (centres undefined) has a GI50 of 0.201 µM.

system: ACHN renal; test: NCI-60 cell line screen, 48 h

Going from `CCOC(=O)C1=NN(c2ccc(C)cc2)C2=CC(C)=NN(C)C(=S)N21` to `CCn1c(-c2ccc(N=NNc3ccc(-c4n[nH]c(=S)n4CC)cc3)cc2)n[nH]c1=S`, the TGI falls from greater than 100 µM to 6.1 µM.

`O=C(c1cccs1)N(C(=S)OC12CC3CC(CC(C3)C1)C2)c1ccccc1` and `CCC1CN(C(=O)c2ccccc2)C(Cc2c[nH]c3ccccc23)C(=O)C1CC(=O)OC` (centres undefined) cannot be ordered by TGI: greater than 100 µM for the first, greater than 100 µM for the second.

`C(=N\NC1=NCCN1)/c1ccc(-c2cn3cc(/C=N/NC4=NCCN4)ccc3n2)cc1` and `Cc1ccccc1C(=O)N/N=C/c1ccc(Sc2nccn2C)c([N+](=O)[O-])c1` cannot be ordered by TGI: greater than 100 µM for the first, greater than 100 µM for the second.

Compared with `CC1CC[C@@]2(OC1)OC1C[C@H]3[C@@H]4CC=C5CC(OC6OC(CO)C(OC7OC(CO)C(O)C(OC8OCC(O)C(O)C8O)C7OC7OC(CO)C(O)C(O)C7O)C(O)C6O)CCC5(C)[C@H]4CCC3(C)C1[C@@H]2C` (some centres undefined), `CC12CC3OC(=O)C1COC14OC5(C2C1=O)C(O)(CCC1C4CC(O)C2(O)CC=CC(=O)C12C)C(=O)OC35C` (centres undefined) is higher in TGI: 10.6 µM for the first, greater than 100 µM for the second.

First: Nc1ccccc1S(=O)(=O)c1ccccc1
Second: O=c1cccccc1[O-].O=c1cccccc1[O-].[O]=[U+2]=[O]
The TGI of the first is higher: greater than 100 µM for the first, 48 µM for the second.

First: Cc1c(N2C(=O)CS(=O)(=O)C2c2cccc(Oc3ccccc3)c2)c(=O)n(-c2ccccc2)n1C (centres undefined)
Second: O=C(C[n+]1ccc2ccccc2c1)c1ccc2ccc3ccccc3c2c1
The TGI of the first is higher: greater than 100 µM for the first, 14.8 µM for the second.

`NC(=O)c1c(NC(=O)c2ccccn2)sc2c1CCC(=O)C2` and `O=C(O)C1C2CCC(O2)C1C(=O)Nc1cccc2cccnc12` (centres undefined) cannot be ordered by TGI: greater than 100 µM for the first, greater than 100 µM for the second.

Going from `CCOC(=O)C(NC(=O)c1ccco1)(Nc1nc2ccc(OCC)cc2s1)C(F)(F)F` (centres undefined) to `NCCCCc1cc(O)c2c(c1O)C(=O)c1ccccc1C2=O`, the TGI falls from 82.3 µM to 25.4 µM (3.2-fold).

`CCC(C)C1=C(OC(C)=O)[N+]2([O-])Oc3ccc(-c4c(OC(C)=O)c(OC(C)=O)c(-c5ccc(OC(C)=O)cc5)c(OC(C)=O)c4OC(C)=O)cc3OC2(C(C)CC)C(=O)N1OC(C)=O` (centres undefined) and `COc1cccc2c1Cc1cc(-c3ccccc3)[n+](C)n1-2` cannot be ordered by TGI: greater than 50 µM for the first, 79.9 µM for the second.

`O=C(OCN1C(=O)C2C3C=CC(C2C1=O)C1C2C(=O)N(COC(=O)C4CCCN4)C(=O)C2C31)C1CCCN1` (centres undefined) showed a TGI greater than 83.4 µM.

With `NC(=O)c1c(NC(=O)c2ccccn2)sc2c1CCC(=O)C2` the GI50 was 2.62 µM.
